Test results from patent US6737383B1, “Herbicidal oxadiazolidines” (priority 1999, dated 2004).

Columns and labels:
cocklebur = test: Test B pre/postemergence cocklebur; assay type: in vivo, Xanthium strumarium
Procedure, shortened: (§1)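 Response is a visual 0-to-10 score relative to untreated plants, where 0 means no effect and 10 means complete control, taken twelve to sixteen days after application. Treatments went onto soil at planting and onto foliage of 1- to 4-leaf plants, using a surfactant-containing non-phytotoxic solvent.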

wild oat = test: Test B pre/postemergence wild oat; assay type: in vivo, Avena fatua
Procedure, shortened: as §1

velvetleaf = test: Test B pre/postemergence velvetleaf; assay type: in vivo, Abutilon theophrasti
Procedure, shortened: as §1

surinam grass = test: Test B pre/postemergence surinam grass; assay type: in vivo, Brachiaria decumbens
Procedure, shortened: as §1

wheat = test: Test B pre/postemergence wheat; assay type: in vivo, Triticum aestivum
Procedure, shortened: as §1

soybean = test: Test B pre/postemergence soybean; assay type: in vivo, Glycine max
Procedure, shortened: as §1

morningglory = test: Test B pre/postemergence morningglory; assay type: in vivo, Ipomoea hederacea
Procedure, shortened: as §1

crabgrass = test: Test B pre/postemergence crabgrass; assay type: in vivo, Digitaria sanguinalis
Procedure, shortened: as §1

rice = test: Test B flood test rice; assay type: in vivo, Oryza sativa
Procedure, shortened: (§2)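 Plants were grown to the 2-leaf stage before treatment with test chemical, then held in a greenhouse for twelve to sixteen days. Injury was visually rated against untreated controls on a 0–10 scale, where 0 is no effect and 10 is complete control.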

bedstraw = test: Test B pre/postemergence bedstraw; assay type: in vivo, Galium aparine; settings: Postemergence, Rate 125 g/ha; scale 0 to 10, 0 is no effect, 10 is complete control
Procedure, shortened: as §1

purple nutsedge = test: Test B pre/postemergence purple nutsedge; assay type: in vivo, Cyperus rotundus
Procedure, shortened: as §1

corn = test: Test B pre/postemergence corn; assay type: in vivo, Zea mays
Procedure, shortened: as §1

duck salad = test: Test B flood test duck salad; assay type: in vivo, Heteranthera limosa
Procedure, shortened: as §2

blackgrass = test: Test B pre/postemergence blackgrass; assay type: in vivo, Alopecurus myosuroides
Procedure, shortened: as §1

pigweed = test: Test B pre/postemergence pigweed; assay type: in vivo, Amaranthus retroflexus
Procedure, shortened: as §1

giant foxtail = test: Test B pre/postemergence giant foxtail; assay type: in vivo, Setaria faberii
Procedure, shortened: as §1

bamyardgrass = test: Test B flood test barnyardgrass; assay type: in vivo, Echinochloa crus-galli
Procedure, shortened: as §2

smallflower flatsedge = test: Test B flood test smallflower flatsedge; assay type: in vivo, Cyperus difformis
Procedure, shortened: as §2

rape = test: Test B pre/postemergence rape; assay type: in vivo, Brassica napus
Procedure, shortened: as §1

sugar beet = test: Test B pre/postemergence sugar beet; assay type: in vivo, Beta vulgaris
Procedure, shortened: as §1

[1] = Postemergence, Rate 125 g/ha, scale 0 to 10, 0 is no effect, 10 is complete control
[2] = Postemergence, Rate 250 g/ha, scale 0 to 10
[3] = Postemergence, Rate 500 g/ha, scale 0 to 10, 0 is no effect, 10 is complete control
[4] = Preemergence, Rate 125 g/ha, scale 0 to 10, 0 is no effect, 10 is complete control
[5] = Preemergence, Rate 250 g/ha, scale 0 to 10, 0 is no effect, 10 is complete control
[6] = Rate 62 g/ha, Postemergence, scale 0 to 10 (0 no effect, 10 complete control)
[7] = Preemergence, Rate 62 g/ha, scale of 0 to 10 where 0 is no effect and 10 is complete control
[8] = Preemergence, Rate 500 g/ha, scale 0 to 10, 0 is no effect, 10 is complete control
[9] = Rate 62 g/ha, flood test species, Pre-emergence, visual evaluation after twelve to sixteen days
[10] = Rate 125 g/ha, under heading Pre-emergence, flood test species, visual evaluation after twelve to sixteen days
[11] = Rate 250 g/ha, Pre-emergence (flood test species), scale 0 to 10, 0 is no effect, 10 is complete control
[12] = Rate 500 g/ha, Pre-emergence section of Table B, 0 to 10 scale (0 no effect, 10 complete control)

CC(C)N(C(=O)n1oc(=O)n(CC(=O)C2CC2)c1=O)c1ccc(F)cc1F [Compound 490]
Cocklebur plant response rating (cocklebur; [1]): 0 | Cocklebur plant response rating (cocklebur; [2]): 0 | Plant response rating, Cocklebur (cocklebur; [3]): 0 | Cocklebur plant response rating (cocklebur; [4]): 0 | Cocklebur plant response rating (cocklebur; [5]): 0 | Cocklebur plant response rating (cocklebur; [6]): 0 | Wild oats plant response rating (wild oat; [1]): 5 | Plant response rating, Wild oats (wild oat; [3]): 7 | Plant response rating, Wild oats (wild oat; [7]): 6 | Wild oats plant response rating (wild oat; [4]): 7 | Wild oats plant response rating (wild oat; [8]): 8 | Wild oats plant response rating (wild oat; [6]): 5 | Velvetleaf plant response rating (velvetleaf; [1]): 0 | Plant response rating, Velvetleaf (velvetleaf; [3]): 1 | Plant response rating, Velvetleaf (velvetleaf; [7]): 0 | Velvetleaf plant response rating (velvetleaf; [4]): 0 | Velvetleaf plant response rating (velvetleaf; [8]): 4 | Velvetleaf plant response rating (velvetleaf; [6]): 0 | B. signalgrass plant response rating (surinam grass; [1]): 4 | B. signalgrass plant response rating (surinam grass; Postemergence, Rate 250 g/ha, scale 0 to 10, 0 no effect, 10 complete control): 4 | Plant response rating, B. signalgrass (surinam grass; [3]): 7 | Plant response rating, B. signalgrass (surinam grass; [7]): 3 | B. signalgrass plant response rating (surinam grass; [4]): 5 | B. signalgrass plant response rating (surinam grass; [5]): 6 | B. signalgrass plant response rating (surinam grass; [8]): 8 | B. signalgrass plant response rating (surinam grass; [6]): 2 | Wheat plant response rating (wheat; [1]): 0 | Plant response rating, Wheat (wheat; [3]): 0 | Plant response rating, Wheat (wheat; [7]): 0 | Wheat plant response rating (wheat; [4]): 0 | Wheat plant response rating (wheat; [8]): 4 | Wheat plant response rating (wheat; [6]): 0 | Soybean plant response rating (soybean; [1]): 5 | Plant response rating, Soybean (soybean; [3]): 6 | Plant response rating, Soybean (soybean; [7]): 0 | Soybean plant response rating (soybean; [4]): 0 | Soybean plant response rating (soybean; [8]): 4 | Soybean plant response rating (soybean; [6]): 4 | Morningglory plant response rating (morningglory; [1]): 3 | Plant response rating, Morningglory (morningglory; [3]): 3 | Plant response rating, Morningglory (morningglory; [7]): 0 | Morningglory plant response rating (morningglory; [4]): 0 | Morningglory plant response rating (morningglory; [8]): 0 | Morningglory plant response rating (morningglory; [6]): 2 | Crabgrass plant response rating (crabgrass; [1]): 6 | Crabgrass plant response rating (crabgrass; [2]): 6 | Plant response rating, Crabgrass (crabgrass; [3]): 7 | Plant response rating, Crabgrass (crabgrass; [7]): 8 | Crabgrass plant response rating (crabgrass; [4]): 9 | Crabgrass plant response rating (crabgrass; [8]): 10 | Crabgrass plant response rating (crabgrass; [6]): 3 | Plant response rating, Rice (0 to 10 scale, 0 is no effect, 10 is complete control) (rice; [9]): 0 | Rice plant response rating (0 to 10 scale, 0 is no effect, 10 is complete control) (rice; [10]): 0 | Rice plant response rating (rice; [11]): 0 | Rice plant response rating (rice; [12]): 0 | Bedstraw plant response rating (bedstraw): 3 | Nutsedge plant response rating (purple nutsedge; [1]): 0 | Plant response rating, Nutsedge (purple nutsedge; [3]): 0 | Plant response rating, Nutsedge (purple nutsedge; [7]): 0 | Nutsedge plant response rating (purple nutsedge; [4]): 0 | Nutsedge plant response rating (purple nutsedge; [8]): 0 | Nutsedge plant response rating (purple nutsedge; [6]): 0 | Corn plant response rating (corn; [1]): 0 | Corn plant response rating (corn; [2]): 0 | Plant response rating, Corn (corn; [3]): 0 | Plant response rating, Corn (corn; [7]): 0 | Corn plant response rating (corn; [4]): 0 | Corn plant response rating (corn; [8]): 5 | Corn plant response rating (corn; [6]): 0 | Plant response rating, Ducksalad (0 to 10 scale, 0 is no effect, 10 is complete control) (duck salad; [9]): 0 | Ducksalad plant response rating (0 to 10 scale, 0 is no effect, 10 is complete control) (duck salad; [10]): 0 | Ducksalad plant response rating (duck salad; [11]): 0 | Ducksalad plant response rating (duck salad; [12]): 0 | Blackgrass plant response rating (blackgrass; [1]): 4 | Plant response rating, Blackgrass (blackgrass; [3]): 5 | Plant response rating, Blackgrass (blackgrass; [7]): 7 | Blackgrass plant response rating (blackgrass; [4]): 8 | Blackgrass plant response rating (blackgrass; [5]): 9 | Blackgrass plant response rating (blackgrass; [8]): 9 | Blackgrass plant response rating (blackgrass; [6]): 2 | Redroot pigweed plant response rating (pigweed; [1]): 0 | Plant response rating, Redroot pigweed (pigweed; [3]): 2 | Plant response rating, Redroot pigweed (pigweed; [7]): 5 | Redroot pigweed plant response rating (pigweed; [4]): 7 | Redroot pigweed plant response rating (pigweed; [8]): 8 | Redroot pigweed plant response rating (pigweed; [6]): 0 | Giant foxtail plant response rating (giant foxtail; [1]): 8 | Plant response rating, Giant foxtail (giant foxtail; [3]): 8 | Plant response rating, Giant foxtail (giant foxtail; [7]): 9 | Giant foxtail plant response rating (giant foxtail; [4]): 9 | Giant foxtail plant response rating (giant foxtail; [8]): 10 | Giant foxtail plant response rating (giant foxtail; [6]): 2 | Plant response rating, Barnyardgrass (0 to 10 scale, 0 is no effect, 10 is complete control) (bamyardgrass; [9]): 0 | Barnyardgrass plant response rating (0 to 10 scale, 0 is no effect, 10 is complete control) (bamyardgrass; [10]): 0 | Barnyardgrass plant response rating (bamyardgrass; [11]): 0 | Barnyardgrass plant response rating (bamyardgrass; [12]): 0 | Plant response rating, S. Flatsedge (0 to 10 scale, 0 is no effect, 10 is complete control) (smallflower flatsedge; [9]): 0 | S. Flatsedge plant response rating (0 to 10 scale, 0 is no effect, 10 is complete control) (smallflower flatsedge; [10]): 0 | S. Flatsedge plant response rating (smallflower flatsedge; [11]): 0 | S. Flatsedge plant response rating (smallflower flatsedge; [12]): 0 | Rape plant response rating (rape; [1]): 0 | Plant response rating, Rape (rape; [3]): 0 | Plant response rating, Rape (rape; [7]): 0 | Rape plant response rating (rape; [4]): 1 | Rape plant response rating (rape; [8]): 8 | Rape plant response rating (rape; [6]): 0 | Sugarbeets plant response rating (sugar beet; [1]): 0 | Plant response rating, Sugarbeets (sugar beet; [3]): 0 | Plant response rating, Sugarbeets (sugar beet; [7]): 0 | Sugarbeets plant response rating (sugar beet; [4]): 0 | Sugarbeets plant response rating (sugar beet; [8]): 5 | Sugarbeets plant response rating (sugar beet; [6]): 0
